This note sets out measurements from the supplement of paper PMC10307832.

For one assay, the system named is NCI-H1915. Nature of the assay: relative viability (nuclei count vs DMSO), 5 days (fraction); higher = more cells survive. The settings on record: first compound 8 µM. The procedure, abridged: (§1)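 Nuclei were stained with Hoechst during a one-step fixation (final 0.05% Triton X-100, 1% formaldehyde, 1 ug/ml Hoechst) carried out 5 days after dosing, then counted on 4× images. The cells, lung cancer lines in 1536-well plates, had been dosed by pin tool the day after seeding with one drug alone or a fixed anchor-drug dose plus five library-drug doses (not always all listed) in √10 steps. Relative viability is the nuclei count in treated wells divided by that in vehicle wells, and each value is the median of duplicate plates.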
With `CCCCCCCCCCCC1=C(O)C(=O)C=C(O)C1=O` [Embelin] + Cc1nc(Nc2ncc(C(=O)Nc3c(C)cccc3Cl)s2)cc(N2CCN(CCO)CC2)n1 [Dasatinib] (partner 0.075 µM), the relative viability amounted to 0.335.

`CCCCCCCCCCCC1=C(O)C(=O)C=C(O)C1=O` [Embelin] + NC(=O)Nc1cc(-c2cccc(F)c2)sc1C(=O)N[C@H]1CCCNC1 [AZD7762] (partner 0.2 µM) returned a relative viability of 0.614.

The molecule `CCCCCCCCCCCC1=C(O)C(=O)C=C(O)C1=O` [Embelin] + CC(=O)c1c(C)c2cnc(Nc3ccc(N4CCNCC4)cn3)nc2n(C2CCCC2)c1=O [Palbociclib] (partner 0.5 µM) showed a relative viability of 0.522.

For a further assay, the system named is EKVX. The assay is described as above. The settings on record: first compound 0.08 µM. The gist of the method:
as §1
In turn, `CCCCCCCCCCCC1=C(O)C(=O)C=C(O)C1=O` [Embelin] + N=C(N)NC(=N)NCCc1ccccc1 [Phenformin] (partner 250 µM) displayed a relative viability of 0.245.

In turn, `CCCCCCCCCCCC1=C(O)C(=O)C=C(O)C1=O` [Embelin] + CCNC(=O)c1noc(-c2cc(C(C)C)c(O)cc2O)c1-c1ccc(CN2CCOCC2)cc1 [Luminespib] (partner 0.01 µM) displayed a relative viability of 0.864.

`CCCCCCCCCCCC1=C(O)C(=O)C=C(O)C1=O` [Embelin] + Cc1nc(Nc2ncc(C(=O)Nc3c(C)cccc3Cl)s2)cc(N2CCN(CCO)CC2)n1 [Dasatinib] (partner 0.075 µM) yielded a relative viability of 0.564.

Consider `CCCCCCCCCCCC1=C(O)C(=O)C=C(O)C1=O` [Embelin] + NC(=O)Nc1cc(-c2cccc(F)c2)sc1C(=O)N[C@H]1CCCNC1 [AZD7762] (partner 0.2 µM), for which the relative viability is 0.698.

Turning to `CCCCCCCCCCCC1=C(O)C(=O)C=C(O)C1=O` [Embelin] + CC(=O)c1c(C)c2cnc(Nc3ccc(N4CCNCC4)cn3)nc2n(C2CCCC2)c1=O [Palbociclib] (partner 0.5 µM), the relative viability came out at 0.411.

Staying with this assay, now noted: first compound 0.8 µM.
Molecule `CCCCCCCCCCCC1=C(O)C(=O)C=C(O)C1=O` [Embelin] + N=C(N)NC(=N)NCCc1ccccc1 [Phenformin] (partner 250 µM) yielded a relative viability of 0.229.

`CCCCCCCCCCCC1=C(O)C(=O)C=C(O)C1=O` [Embelin] + CCNC(=O)c1noc(-c2cc(C(C)C)c(O)cc2O)c1-c1ccc(CN2CCOCC2)cc1 [Luminespib] (partner 0.01 µM) showed a relative viability of 0.888.

Turning to `CCCCCCCCCCCC1=C(O)C(=O)C=C(O)C1=O` [Embelin] + Cc1nc(Nc2ncc(C(=O)Nc3c(C)cccc3Cl)s2)cc(N2CCN(CCO)CC2)n1 [Dasatinib] (partner 0.075 µM), the relative viability worked out at 0.724.

In turn, `CCCCCCCCCCCC1=C(O)C(=O)C=C(O)C1=O` [Embelin] + NC(=O)Nc1cc(-c2cccc(F)c2)sc1C(=O)N[C@H]1CCCNC1 [AZD7762] (partner 0.2 µM) returned a relative viability of 0.748.

For `CCCCCCCCCCCC1=C(O)C(=O)C=C(O)C1=O` [Embelin] + CC(=O)c1c(C)c2cnc(Nc3ccc(N4CCNCC4)cn3)nc2n(C2CCCC2)c1=O [Palbociclib] (partner 0.5 µM), the relative viability was 0.432.

Still in this assay, the particulars now being: first compound 2.53 µM.
The molecule `CCCCCCCCCCCC1=C(O)C(=O)C=C(O)C1=O` [Embelin] + N=C(N)NC(=N)NCCc1ccccc1 [Phenformin] (partner 250 µM) returned a relative viability of 0.205.

`CCCCCCCCCCCC1=C(O)C(=O)C=C(O)C1=O` [Embelin] + CCNC(=O)c1noc(-c2cc(C(C)C)c(O)cc2O)c1-c1ccc(CN2CCOCC2)cc1 [Luminespib] (partner 0.01 µM) gave a relative viability of 0.876.

For the molecule `CCCCCCCCCCCC1=C(O)C(=O)C=C(O)C1=O` [Embelin] + Cc1nc(Nc2ncc(C(=O)Nc3c(C)cccc3Cl)s2)cc(N2CCN(CCO)CC2)n1 [Dasatinib] (partner 0.075 µM), the relative viability turned out to be 0.576.

In the case of `CCCCCCCCCCCC1=C(O)C(=O)C=C(O)C1=O` [Embelin] + NC(=O)Nc1cc(-c2cccc(F)c2)sc1C(=O)N[C@H]1CCCNC1 [AZD7762] (partner 0.2 µM), the relative viability worked out at 0.662.

Turning to `CCCCCCCCCCCC1=C(O)C(=O)C=C(O)C1=O` [Embelin] + CC(=O)c1c(C)c2cnc(Nc3ccc(N4CCNCC4)cn3)nc2n(C2CCCC2)c1=O [Palbociclib] (partner 0.5 µM), the relative viability is 0.466.

Staying with this assay, now noted: first compound 8 µM.
`CCCCCCCCCCCC1=C(O)C(=O)C=C(O)C1=O` [Embelin] + N=C(N)NC(=N)NCCc1ccccc1 [Phenformin] (partner 250 µM) registered a relative viability of 0.247.

Take `CCCCCCCCCCCC1=C(O)C(=O)C=C(O)C1=O` [Embelin] + CCNC(=O)c1noc(-c2cc(C(C)C)c(O)cc2O)c1-c1ccc(CN2CCOCC2)cc1 [Luminespib] (partner 0.01 µM): the relative viability was 0.966.

With `CCCCCCCCCCCC1=C(O)C(=O)C=C(O)C1=O` [Embelin] + Cc1nc(Nc2ncc(C(=O)Nc3c(C)cccc3Cl)s2)cc(N2CCN(CCO)CC2)n1 [Dasatinib] (partner 0.075 µM), the relative viability turned out to be 0.555.

As to `CCCCCCCCCCCC1=C(O)C(=O)C=C(O)C1=O` [Embelin] + NC(=O)Nc1cc(-c2cccc(F)c2)sc1C(=O)N[C@H]1CCCNC1 [AZD7762] (partner 0.2 µM), the relative viability came to 0.749.

The molecule `CCCCCCCCCCCC1=C(O)C(=O)C=C(O)C1=O` [Embelin] + CC(=O)c1c(C)c2cnc(Nc3ccc(N4CCNCC4)cn3)nc2n(C2CCCC2)c1=O [Palbociclib] (partner 0.5 µM) had a relative viability of 0.394.

For another assay, the system named is A-427. The assay is described as above. The settings on record: first compound 0.08 µM. The procedure, abridged: as §1
On to `CCCCCCCCCCCC1=C(O)C(=O)C=C(O)C1=O` [Embelin] + N=C(N)NC(=N)NCCc1ccccc1 [Phenformin] (partner 250 µM), for which the relative viability is 0.359.

Molecule `CCCCCCCCCCCC1=C(O)C(=O)C=C(O)C1=O` [Embelin] + CCNC(=O)c1noc(-c2cc(C(C)C)c(O)cc2O)c1-c1ccc(CN2CCOCC2)cc1 [Luminespib] (partner 0.01 µM) yielded a relative viability of 0.976.

The molecule `CCCCCCCCCCCC1=C(O)C(=O)C=C(O)C1=O` [Embelin] + Cc1nc(Nc2ncc(C(=O)Nc3c(C)cccc3Cl)s2)cc(N2CCN(CCO)CC2)n1 [Dasatinib] (partner 0.075 µM) displayed a relative viability of 0.689.

In the case of `CCCCCCCCCCCC1=C(O)C(=O)C=C(O)C1=O` [Embelin] + NC(=O)Nc1cc(-c2cccc(F)c2)sc1C(=O)N[C@H]1CCCNC1 [AZD7762] (partner 0.2 µM), the relative viability came out at 0.75.
